From ChEMBL document CHEMBL1201862, “PubChem BioAssay data set” (2004)
Calls of active or inactive are those of the source.

Key:
Protein RecA = target: T1, Protein RecA (Mycobacterium tuberculosis, UniProt P9WHJ3); assay: Fluorescence Cell-Free Homogeneous Dose Retest to Identify Inhibitors of RecA-Intein Splicing Activity. [Related pubchem assays (depositor defined):AID2097, AID2223, AID489010, AID492950]; assay type: functional
T1 sequence (P9WHJ3 whole entry): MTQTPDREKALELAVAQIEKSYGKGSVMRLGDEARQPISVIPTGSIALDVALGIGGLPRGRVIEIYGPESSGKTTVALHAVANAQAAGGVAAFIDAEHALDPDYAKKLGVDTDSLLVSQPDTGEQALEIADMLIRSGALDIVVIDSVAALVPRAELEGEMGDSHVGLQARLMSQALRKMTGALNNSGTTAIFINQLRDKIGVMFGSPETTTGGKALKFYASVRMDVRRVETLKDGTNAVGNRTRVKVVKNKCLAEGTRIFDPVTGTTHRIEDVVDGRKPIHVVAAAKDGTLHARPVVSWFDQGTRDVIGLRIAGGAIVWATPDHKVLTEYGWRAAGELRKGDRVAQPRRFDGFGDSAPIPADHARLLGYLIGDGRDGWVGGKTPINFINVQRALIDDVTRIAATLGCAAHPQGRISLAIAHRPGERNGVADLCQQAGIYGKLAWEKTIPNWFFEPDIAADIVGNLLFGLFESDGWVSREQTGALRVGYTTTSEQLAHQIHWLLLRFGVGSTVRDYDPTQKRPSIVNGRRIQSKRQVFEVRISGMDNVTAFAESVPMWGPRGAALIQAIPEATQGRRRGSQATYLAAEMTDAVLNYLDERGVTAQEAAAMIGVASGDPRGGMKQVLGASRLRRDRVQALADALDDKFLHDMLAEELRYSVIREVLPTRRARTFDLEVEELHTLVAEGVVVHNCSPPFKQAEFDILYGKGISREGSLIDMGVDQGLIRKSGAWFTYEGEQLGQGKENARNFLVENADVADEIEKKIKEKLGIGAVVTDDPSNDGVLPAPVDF

[1] = target: T2, Tyrosyl-DNA phosphodiesterase 2 (Homo sapiens, UniProt O95551); assay: human TDP2 enzyme inhibitors, dose response, biochemical, epi absorbance, IC50 (AID 743297)
T2 sequence (O95551 whole entry): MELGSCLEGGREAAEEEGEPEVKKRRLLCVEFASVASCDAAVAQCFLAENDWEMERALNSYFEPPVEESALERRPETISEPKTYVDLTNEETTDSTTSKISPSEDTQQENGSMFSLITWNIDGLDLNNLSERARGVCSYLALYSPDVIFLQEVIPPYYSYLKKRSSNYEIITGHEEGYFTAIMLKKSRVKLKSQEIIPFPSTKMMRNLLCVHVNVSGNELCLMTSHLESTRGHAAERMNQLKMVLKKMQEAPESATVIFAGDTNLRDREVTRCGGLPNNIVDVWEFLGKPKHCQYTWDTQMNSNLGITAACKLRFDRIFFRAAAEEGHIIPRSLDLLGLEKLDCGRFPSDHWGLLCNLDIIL

[2] = target: T3, Apoptotic protease-activating factor 1 (Homo sapiens, UniProt O14727); assay type: functional
T3 sequence (O14727 whole entry): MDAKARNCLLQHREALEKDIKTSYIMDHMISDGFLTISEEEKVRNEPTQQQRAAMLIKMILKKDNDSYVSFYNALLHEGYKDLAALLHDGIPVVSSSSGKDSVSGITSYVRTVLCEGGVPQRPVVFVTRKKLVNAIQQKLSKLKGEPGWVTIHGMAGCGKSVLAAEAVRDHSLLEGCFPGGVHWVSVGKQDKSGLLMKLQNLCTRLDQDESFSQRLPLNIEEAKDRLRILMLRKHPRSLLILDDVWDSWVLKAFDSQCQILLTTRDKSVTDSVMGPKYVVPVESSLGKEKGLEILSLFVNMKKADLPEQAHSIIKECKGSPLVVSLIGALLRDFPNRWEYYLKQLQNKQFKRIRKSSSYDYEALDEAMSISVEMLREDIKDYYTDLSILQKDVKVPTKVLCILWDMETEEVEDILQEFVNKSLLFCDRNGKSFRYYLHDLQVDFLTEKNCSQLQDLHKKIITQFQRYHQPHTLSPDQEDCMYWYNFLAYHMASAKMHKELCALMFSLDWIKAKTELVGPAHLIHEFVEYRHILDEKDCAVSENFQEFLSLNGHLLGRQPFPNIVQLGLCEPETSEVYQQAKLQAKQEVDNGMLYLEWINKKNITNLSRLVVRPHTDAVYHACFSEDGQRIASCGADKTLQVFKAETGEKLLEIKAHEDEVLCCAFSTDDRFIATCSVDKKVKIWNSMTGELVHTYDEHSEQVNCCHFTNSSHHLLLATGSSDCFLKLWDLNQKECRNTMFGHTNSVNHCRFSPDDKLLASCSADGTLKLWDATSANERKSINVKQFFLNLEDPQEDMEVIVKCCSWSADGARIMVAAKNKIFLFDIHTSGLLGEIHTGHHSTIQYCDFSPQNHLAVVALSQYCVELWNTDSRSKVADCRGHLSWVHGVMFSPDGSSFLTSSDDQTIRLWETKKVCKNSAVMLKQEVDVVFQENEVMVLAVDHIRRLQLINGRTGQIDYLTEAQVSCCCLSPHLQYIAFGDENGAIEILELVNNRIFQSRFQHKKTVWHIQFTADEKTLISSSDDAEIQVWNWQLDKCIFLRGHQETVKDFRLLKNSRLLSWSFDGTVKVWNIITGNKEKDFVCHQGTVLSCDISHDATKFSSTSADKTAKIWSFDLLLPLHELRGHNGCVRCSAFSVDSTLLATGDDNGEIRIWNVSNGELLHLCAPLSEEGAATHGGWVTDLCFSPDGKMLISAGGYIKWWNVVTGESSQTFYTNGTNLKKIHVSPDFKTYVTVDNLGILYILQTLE

| Compound | EC50 (Protein RecA) | IC50 [1] | IC50 [2] |
| --- | --- | --- | --- |
| O=[N+]([O-])c1c(Nc2ccccn2)cc(Cl)c2nonc12 | 1.02 µM (active) | 99.4 µM (inactive) |  |
| Cc1ccc(S(=O)(=O)/N=C2\C=C(Nc3cccc(C(=O)O)c3)C(=O)c3ccccc32)cc1 | 0.266 µM (active) | 3.18 µM (active) | 7.32 µM (active) |
| CC[C@@H](C)[C@H](CNC)NC[C@@H](Cc1cccc2ccccc12)NCCc1cccc(C(F)(F)F)c1 |  |  | 44.1 µM (active) |
| Cc1ccc(C(=O)NC2(O)C(=O)c3ccccc3C2=O)cc1C | 15.9 µM (active) | 5.74 µM (active) | 5.13 µM (active) |
